Data: publication PMC9721426, “Novel piperine-carboximidamide hybrids: design, synthesis, and antiproliferative activity via a multi-targeted inhibitory pathway” (Journal of Enzyme Inhibition and Medicinal Chemistry, 2022)

Columns and labels:
[1] = MTT cell viability assay on normal mammary epithelial cells; assay type: cell-based; conditions: human, MCF-10A normal cells, 4 days incubation
Protocol: A human mammary gland epithelial (MCF-10A) normal cell line was used to perform the viability test. The viability of compounds VIa-k was determined using the MTT assay after 4 days of incubation with MCF-10A cells[26]^,[27].
The MTT assay was used to assess how the synthetic compounds impacted the viability of mammary epithelial cells (MCF-10A)[26]^,[27]. Appendix A. […]
4.2. Biological evaluation
4.2.1. Cytotoxic activity using MTT Assay and evaluation of IC50
MTT assay was carried out to study the effect of compounds on mammary epithelial cells (MCF-10A)26,27. The medium in which cells were propagated contained Dulbecco's modified Eagle's medium (DMEM)/ Ham's F-12 medium (1:1) supplemented with epidermal growth factor (20 ng/mL), hydrocortisone (500 ng/mL), insulin (10 μg/mL), 2 mM glutamine and 10% foetal calf serum. After every 2-3 days, the cells were passaged using trypsin ethylenediamine tetra acetic acid (EDTA). The cells were seeded at a density of 10^4 cells mL-1 in flat-bottomed culture plates containing 96 wells each. […]
(§1) A single compound was designated with four wells followed by incubation of plates for 96h at 37°C. After incubation, medium was removed completely from the plates followed by addition of MTT (0.4 mg/mL in medium) to each well and subsequent incubation of plates for 3h. MTT (along with the medium) was removed and DMSO (150μL) was added to each well of the culture plates, followed by vortexing and subsequent measurement of absorbance (at 540 nm) using microplate reader. […]

[2] = test system: Panc-1 (pancreatic cancer cell line); test: Antiproliferative MTT assay, Panc-1; assay type: cell-based; conditions: Homo sapiens; Panc-1, MTT; read-out: Antiproliferative activity IC50 ± SEM, Panc-1
Protocol: The MTT assay was performed using various cell lines in accordance with previously reported procedures[28]^,[29] to investigate the antiproliferative potential of VIa-k. Refer to Appendix A. […]
added (in 200 μL medium to yield a final concentration of 0.1% v/v) to the wells of plates. A single compound was designated with four wells followed by incubation of […]
as §1, with “After” for “A single compound was designated with four wells followed by incubation of plates for 96h at 37°C. After”, “reader. The data are shown as percentage inhibition of proliferation in comparison with controls containing 4.2.1.2. Assay for antiproliferative effect” for “reader.”
The percentage cytotoxicity of compounds was calculated using the following […]
Where ATC= Absorbance of treated cells and AC= Absorbance of control. […]
used as positive control in the assay. […]

[3] = test system: LOX-IMVI melanoma cell line; test: LOX-IMVI melanoma cell line MTT cytotoxicity assay; assay type: cell-based; conditions: Homo sapiens, 5-dose concentrations, read-out: LOX-IMVI melanoma IC50 ± SEM
Protocol: The MTT cytotoxicity assay was used to assess the anticancer activity of VIc, VIf, and VIk on the LOX-IMVI melanoma cell line, which comprises BRAF^V600E kinase overexpression. The compounds were evaluated at 5-dose concentrations to ascertain their IC50 values, with staurosporine acting as a control.
The MTT cytotoxicity assay was used to assess the anticancer activity of VIc, VIf, and VIk on the LOX-IMVI melanoma cell line, which comprises BRAF^V600E kinase overexpression. Refer to Appendix A.

[4] = MCF-10A mammary epithelial cells

IC50 [2] [nM]	melting point [°C]	Structure (SMILES)	viability at 4 days, 50 µM [1, 4] [%]	IC50 [3] [nM]	viability at 4 days, 50 µM ([1]; MCF-10A normal mammary gland epithelial cells) [%]
53 ± 5	159 to 161	NC(=NOC(=O)/C=C/C=C/c1ccc2c(c1)OCO2)c1ccc(Br)cc1 [VIc, N'-{[(2E,4E)-5-(2H-1,3-Benzodioxol-5-yl)penta-2,4-dienoyl]oxy}-4-bromobenzene-1-carboximidamide]	86	1400 ± 20	–
45 ± 4	165 to 167	NC(=NOC(=O)/C=C/C=C/c1ccc2c(c1)OCO2)c1ccccc1Cl [VIf, N'-{[(2E,4E)-5-(2H-1,3-benzodioxol-5-yl)penta-2,4-dienoyl]oxy}-2-chlorobenzene-1-carboximidamide]	90	1100 ± 10	–
36 ± 3	–	N/C(=N/OC(=O)/C=C/C=C/c1ccc2c(c1)OCO2)c1ccc2c(c1)OCO2 [VIk]	–	1050 ± 10	89
